Reference: publication PMC10089987, “The lipoxygenase OsLOX10 affects seed longevity and resistance to saline-alkaline stress during rice seedlings” (Plant Molecular Biology, 2023)

Target: T1, LOX10 (OsLOX10) (Oryza sativa, UniProt B7EMC8)
T1 construct: full-length CDS (2607 bp, 868 aa) in pET28a(+), His tag, E. coli BL21(DE3) lysate supernatant, about 98 kDa plus tag (band at 100 kDa)
Test: KI-I2 starch staining (colour)
Type: biochemical
Settings: E. coli lysate supernatant with recombinant LOX10, 0.5 µg protein/µl and dilutions; controls pET28a(+) supernatant and PBS

T1 sequence (B7EMC8 1-868): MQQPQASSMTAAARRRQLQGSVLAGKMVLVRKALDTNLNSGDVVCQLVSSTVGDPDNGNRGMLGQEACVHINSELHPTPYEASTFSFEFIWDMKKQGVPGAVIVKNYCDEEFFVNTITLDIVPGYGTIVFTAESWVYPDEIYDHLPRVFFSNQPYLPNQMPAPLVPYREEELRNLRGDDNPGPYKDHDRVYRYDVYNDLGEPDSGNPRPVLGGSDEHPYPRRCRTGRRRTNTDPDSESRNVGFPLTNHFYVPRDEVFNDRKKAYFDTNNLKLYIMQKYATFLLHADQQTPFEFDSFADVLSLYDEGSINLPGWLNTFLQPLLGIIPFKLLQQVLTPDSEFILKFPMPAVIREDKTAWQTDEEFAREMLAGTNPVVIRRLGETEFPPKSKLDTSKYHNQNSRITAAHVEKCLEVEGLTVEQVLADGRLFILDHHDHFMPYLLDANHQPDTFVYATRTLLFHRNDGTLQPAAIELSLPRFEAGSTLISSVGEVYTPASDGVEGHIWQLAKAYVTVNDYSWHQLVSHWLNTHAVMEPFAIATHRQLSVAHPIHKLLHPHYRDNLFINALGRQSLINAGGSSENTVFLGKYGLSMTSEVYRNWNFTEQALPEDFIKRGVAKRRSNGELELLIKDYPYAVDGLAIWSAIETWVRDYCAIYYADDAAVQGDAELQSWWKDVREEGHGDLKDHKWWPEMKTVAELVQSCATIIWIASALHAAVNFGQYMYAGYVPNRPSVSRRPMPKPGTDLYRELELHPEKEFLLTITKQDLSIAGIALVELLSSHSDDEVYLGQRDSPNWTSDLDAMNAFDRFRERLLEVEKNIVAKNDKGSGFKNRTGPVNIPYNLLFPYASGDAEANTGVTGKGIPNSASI

CCCCC/C=C\C/C=C\CCCCCCCC(=O)O [LA, linoleic acid]
KI-I2 starch staining (colour): The KI-I2 staining showed that LOX10 could metabolize the substrate LA to produce starch
